The supplement of paper PMC13380429
Structures can show the parent of a compound that is named as a salt.

How the values were obtained:
Conditions in all cases: 72 h
Caco-2 [1] = assay: cell viability relative to DMSO; higher = less toxic
Calu-3 [2] = assay: as above
HepG2 [3] = assay: as above
U2OS [4] = assay: as above
Vero E6 [5] = assay: as above
Caco-2 [6] = assay: relative viability EC50 (midpoint between 100% and the lowest measured viability); higher = less toxic
Calu-3 [7] = assay: as above
HepG2 [8] = assay: as above
U2OS [9] = assay: as above
Vero E6 [10] = assay: as above
Caco-2 [11] = assay: drug sensitivity score (DSS) for viability; higher = more toxic; extreme values may be limits of the assay
Calu-3 [12] = assay: as above
HepG2 [13] = assay: as above
U2OS [14] = assay: as above
Vero E6 [15] = assay: as above

Row | SMILES | cell viability (Caco-2 [1]; 1 nM) | cell viability (Caco-2 [1]; 10 nM) | cell viability (Caco-2 [1]; 100 nM) | cell viability (Caco-2 [1]; 1000 nM) | cell viability (Caco-2 [1]; 10000 nM) | cell viability (Calu-3 [2]; 1 nM) | cell viability (Calu-3 [2]; 10 nM) | cell viability (Calu-3 [2]; 100 nM) | cell viability (Calu-3 [2]; 1000 nM) | cell viability (Calu-3 [2]; 10000 nM) | cell viability (HepG2 [3]; 1 nM) | cell viability (HepG2 [3]; 10 nM) | cell viability (HepG2 [3]; 100 nM) | cell viability (HepG2 [3]; 1000 nM) | cell viability (HepG2 [3]; 10000 nM) | cell viability (U2OS [4]; 1 nM) | cell viability (U2OS [4]; 10 nM) | cell viability (U2OS [4]; 100 nM) | cell viability (U2OS [4]; 1000 nM) | cell viability (U2OS [4]; 10000 nM) | cell viability (Vero E6 [5]; 1 nM) | cell viability (Vero E6 [5]; 10 nM) | cell viability (Vero E6 [5]; 100 nM) | cell viability (Vero E6 [5]; 1000 nM) | cell viability (Vero E6 [5]; 10000 nM) | relative viability EC50 (Caco-2 [6]) | relative viability EC50 (Calu-3 [7]) | relative viability EC50 (HepG2 [8]) | relative viability EC50 (U2OS [9]) | relative viability EC50 (Vero E6 [10]) | drug sensitivity score (Caco-2 [11]) | drug sensitivity score (Calu-3 [12]) | drug sensitivity score (HepG2 [13]) | drug sensitivity score (U2OS [14]) | drug sensitivity score (Vero E6 [15])
1 | C[C@H]1C[C@@H]2[C@H]([C@@H](O)C[C@@]3(C)[C@H]2CC[C@]3(O)C(=O)COC(=O)CCC(=O)O)[C@@]2(C)C=CC(=O)C=C12 [methylprednisolone-sodium-succinate] | 104% | 94.6% | 98.3% | 99.6% | 92.5% | 108% | 99% | 88.8% | 91.2% | 122% | 98.2% | 101% | 89.6% | 103% | 91.2% | 99.2% | 93.8% | 95% | 92.5% | 93.9% | 100% | 103% | 101% | 96% | 98.2% | > 10 µM | > 10 µM | > 10 µM | > 10 µM | > 10 µM | 0 | 0 | 0 | 0 | 0
2 | Cc1cnc(Nc2ccc(N3CCN(C)CC3)cc2)nc1Nc1cccc(S(=O)(=O)NC(C)(C)C)c1 | 96.3% | 101% | 98.4% | 64.3% | 9.6% | 93% | 95.1% | 92.6% | 86.1% | 13.8% | 96.2% | 105% | 97.2% | 57.9% | 28.9% | 92.1% | 93.7% | 100% | 75.3% | 0.5% | 93% | 105% | 94.9% | 90.9% | 0.2% | 1.2 µM | 1.92 µM | 0.8 µM | 1.55 µM | 2.41 µM | 9.7 | 7.1 | 9 | 9.3 | 7
3 | CC(COc1ccccc1)N(CCCl)Cc1ccccc1 (stereo not given) [phenoxybenzamine] | 86.6% | 92.7% | 102% | 95.9% | 86% | 96.5% | 109% | 106% | 101% | 95.8% | 101% | 106% | 88.7% | 89.4% | 96.5% | 96.3% | 102% | 93.4% | 114% | 93.6% | 102% | 98.3% | 101% | 97.9% | 94.3% | > 10 µM | > 10 µM | > 10 µM | > 10 µM | > 10 µM | 0.5 | 0 | 0.6 | 0 | 0
4 | O=C(Nc1cc2cc[nH]c2cn1)c1ccccc1 [OAC1] | 102% | 97% | 100% | 85.6% | 77.3% | 99.8% | 96.8% | 103% | 102% | 89.3% | 104% | 116% | 101% | 113% | 80.8% | 105% | 95.8% | 101% | 93.3% | 83.3% | 97.1% | 99.7% | 94.3% | 99.1% | 86.2% | > 10 µM | > 10 µM | > 10 µM | > 10 µM | > 10 µM | 2.3 | 0 | 0.3 | 1 | 0.2
5 | CC(C)C(=O)OC[C@H]1O[C@@H](n2ccc(N)nc2=O)[C@](C)(F)[C@@H]1OC(=O)C(C)C [mericitabine] | 93.9% | 86.9% | 96.3% | 91.1% | 102% | 110% | 88.1% | 108% | 109% | 106% | 89.3% | 99.3% | 94.1% | 102% | 91.6% | 97.1% | 94% | 98.6% | 97% | 97.4% | 92.5% | 97.6% | 99.3% | 93.6% | 91.5% | > 10 µM | > 10 µM | > 10 µM | > 10 µM | > 10 µM | 0 | 0 | 0 | 0 | 0
6 | CCCCOc1cc(C(=O)OCCN(CC)CC)ccc1N [oxybuprocaine] | 106% | 96.9% | 98.7% | 100% | 100% | 96% | 106% | 110% | 107% | 98.7% | 105% | 117% | 95.7% | 97.8% | 90% | 104% | 96.7% | 105% | 101% | 101% | 103% | 105% | 101% | 102% | 97.9% | > 10 µM | > 10 µM | > 10 µM | > 10 µM | > 10 µM | 0 | 0 | 0 | 0 | 0
7 | COc1ccc(/C=C\c2cc(OC)c(OC)c(OC)c2)cc1O [combretastatin-A-4] | 93.5% | 76.9% | 52.8% | 40.3% | 43.9% | 100% | 107% | 85.8% | 47.2% | 34.5% | 99.6% | 99.8% | 45.2% | 37.9% | 37.3% | 94.5% | 47.4% | 22.3% | 23.6% | 22.2% | 97.1% | 63.9% | 22.5% | 22.8% | 25.1% | 0.0175 µM | 0.303 µM | 0.0466 µM | 0.006 µM | 0.0107 µM | 19.1 | 11.5 | 18.3 | 30.8 | 28.4
8 | Nc1nc(OCC2CCCCC2)c2nc[nH]c2n1 [NU-2058] | 98.4% | 94.6% | 96.2% | 96.2% | 90.3% | 92.4% | 106% | 97.2% | 109% | 105% | 120% | 106% | 98.3% | 104% | 86.8% | 96.2% | 103% | 94.6% | 95.6% | 96% | 103% | 97.6% | 98.2% | 102% | 99.7% | > 10 µM | > 10 µM | > 10 µM | > 10 µM | > 10 µM | 0 | 0 | 0.1 | 0 | 0
9 | O=c1n(CCCN2CCN(c3cccc(Cl)c3)CC2)nc2ccccn12 [trazodone] | 99.5% | 98.2% | 97.5% | 89.6% | 96.4% | 105% | 92.4% | 95.1% | 79.7% | 99.3% | 95.8% | 99% | 94.1% | 108% | 91% | 102% | 104% | 98.5% | 97.2% | 98.3% | 98.8% | 101% | 95.6% | 103% | 101% | > 10 µM | > 10 µM | > 10 µM | > 10 µM | > 10 µM | 0 | 0 | 0 | 0 | 0
10 | CC[C@H](Nc1ncnc2[nH]cnc12)c1nc2cccc(F)c2c(=O)n1-c1ccccc1 [idelalisib] | 95.4% | 98.1% | 96.6% | 101% | 83.7% | 106% | 104% | 85.8% | 103% | 89.5% | 104% | 94% | 108% | 97.3% | 88.5% | 91.2% | 101% | 94.1% | 95.6% | 93.9% | 99% | 95% | 96% | 87.5% | 89.5% | > 10 µM | > 10 µM | > 10 µM | > 10 µM | > 10 µM | 0.3 | 0 | 0.1 | 0 | 0.2
11 | CNCCc1cnc[nH]1 [N-alpha-methylhistamine-dihydrochloride] | 94.5% | 104% | 92.5% | 98.2% | 102% | 101% | 97.2% | 91.5% | 109% | 94.5% | 104% | 95.9% | 103% | 87.7% | 112% | 97.4% | 105% | 101% | 102% | 98% | 99.4% | 91.6% | 96.7% | 91.5% | 97.1% | > 10 µM | > 10 µM | > 10 µM | > 10 µM | > 10 µM | 0 | 0 | 0 | 0 | 0
